Broadly, the HC50 is the concentration giving 50% haemolysis. A lower HC50 goes with more damage to red cells.

The results in this text go back to article PMC9743092, “Membrane-Active Cyclic Amphiphilic Peptides: Broad-Spectrum Antibacterial Activity Alone and in Combination with Antibiotics” (Journal of Medicinal Chemistry, 2022).

Data set [1] concerns E. coli (ATCC 25922). The note with it: 24 h, ≥99.9% kill.
Data set [2] deals with P. aeruginosa (ATCC 27883). The note with it: 24 h, ≥99.9% kill.
Data set [3] has as its system K. pneumoniae (ATCC BAA-1705). The note with it: 24 h, ≥99.9% kill.
Data set [4] relates to human red blood cells (hRBCs). The note with it: red cells of human, 2 h.
The subject of data set [5] is K. pneumoniae (ATCC BAA-1705). In words: Synergistic checkerboard assay. The note with it: Klebsiella pneumoniae, ATCCBAA1705, read-out: MIC antibiotic alone.
For data set [6], the system named is P. aeruginosa (ATCC 27883). The data set can be described thus: Synergistic checkerboard assay. The data set is classed as cell-based. To be noted: Pseudomonas aeruginosa.
For data set [7], the system named is E. coli (ATCC 25922). In words: Synergistic checkerboard assay. The data set is classed as cell-based. To be noted: Escherichia coli.
In the next data set the test system is MRSA (ATCC BAA-1556). The data set can be described thus: microbe, parasite or virus in culture. The note with it: Staphylococcus aureus.
The test system of data set [8] is K. pneumoniae (ATCC BAA-1705). To be noted: antibiotic alone or physical mixture with peptide (1:1 w/w).
In data set [9] the test system is S. aureus (ATCC BAA-1556). The data set can be described thus: Synergistic checkerboard assay. The note with it: Staphylococcus aureus. In kind it is cell-based.
Data set [10] has as its system P. aeruginosa (ATCC 27883). The data set can be described thus: microbe, parasite or virus in culture. The note with it: Pseudomonas aeruginosa, ATCC27883, read-out: MIC P. aeruginosa (ATCC 27883).
Data set [11] deals with K. pneumoniae (ATCC BAA-1705). The data set can be described thus: microbe, parasite or virus in culture. The note with it: Klebsiella pneumoniae.
Data set [12] relates to E. coli (ATCC 25922). The data set can be described thus: microbe, parasite or virus in culture. The note with it: Escherichia coli.
The mark [13] stands for this setting: ATCC27883, read-out: MIC antibiotic alone.
Where [14] appears, read: ATCC25922, read-out: MIC antibiotic alone.
[15] abbreviates: read-out: MIC S. aureus (ATCC BAA-1556).
Where [16] appears, read: ATCC27883, checkerboard, read-out: MIC antibiotic alone.
[17] abbreviates: ATCCBAA1556, checkerboard, read-out: MIC antibiotic alone.
Where [18] appears, read: ATCC25922, checkerboard, read-out: MIC antibiotic alone.
Setting [19] is: ATCCBAA1705, read-out: MIC K. pneumoniae (ATCC BAA-1705).
The mark [20] stands for this setting: ATCC25922, read-out: MIC E. coli (ATCC 25922).

Converted amounts (≈) assume the structure as drawn. Where two headings read alike, the source gives them in different places. Peptide text beside a SMILES is read from it.

Take `N=C(N)NCCC[C@@H]1NC(=O)[C@H](CCCNC(=N)N)NC(=O)[C@H](CCCNC(=N)N)NC(=O)[C@H](Cc2c[nH]c3ccccc23)NC(=O)[C@H](Cc2c[nH]c3ccccc23)NC(=O)[C@H](Cc2c[nH]c3ccccc23)NC(=O)[C@H](Cc2c[nH]c3ccccc23)NC(=O)[C@H](CCCNC(=N)N)NC1=O` [compound 1, [R4W4]] (cyclo(RRRRWWWW)): in the data set on E. coli (ATCC 25922) [1], the “MBC E. coli (ATCC 25922)” value was 32 µg/mL (≈ 23.4 µM). In addition, the “MBC P. aeruginosa (ATCC 27883)” value in [2] worked out at 128 µg/mL (≈ 93.5 µM). Further, the “MBC K. pneumoniae (ATCC BAA-1705)” value in [3] stood at 64 µg/mL (≈ 46.7 µM). The same molecule yielded an HC50 in [4] of 175 µg/mL.

Take `C[C@H]1COc2c(N3CCN(C)CC3)c(F)cc3c(=O)c(C(=O)O)cn1c23.C[C@H]1COc2c(N3CCN(C)CC3)c(F)cc3c(=O)c(C(=O)O)cn1c23.O` [levofloxacin]: the MIC in [5] was 64 µg/mL; in data set [6] (setting [13]) it was 1 µg/mL; with E. coli (ATCC 25922) [7] (setting [14]) it was 64 µg/mL.

For `Cc1ncc([N+](=O)[O-])n1CCO` [metronidazole], the MIC with MRSA (ATCC BAA-1556) (setting [15]) turned out to be 32 µg/mL (≈ 187 µM); in data set [5], 256 µg/mL; in data set [6] (setting [16]), 32 µg/mL; in data set [9] (setting [17]), 32 µg/mL; in [10], 32 µg/mL (≈ 187 µM). Moreover, the “MIC K. pneumoniae (ATCC BAA-1705)” value in data set [8] was found to be 256 µg/mL (≈ 1500 µM).

In the case of `CN(C)[C@@H]1C(O)=C(C(N)=O)C(=O)[C@@]2(O)C(O)=C3C(=O)c4c(O)cccc4[C@@](C)(O)[C@H]3C[C@@H]12` [tetracycline], the MIC in the data set with MRSA (ATCC BAA-1556) (setting [15]) turned out to be 0.25 µg/mL (≈ 0.563 µM); in [5], […]; in data set [6] (setting [16]), 32 µg/mL; with E. coli (ATCC 25922) [7] (setting [18]), 8 µg/mL; in data set [9] (setting [17]) it was 0.25 µg/mL; in [11] (setting [19]), […]. The MIC in the data set with E. coli (ATCC 25922) [12] (setting [20]) turned out to be 8 µg/mL (≈ 18 µM); in data set [10], 32 µg/mL (≈ 72 µM).

`NC[C@H]1O[C@H](O[C@H]2[C@H](O)[C@@H](O[C@H]3O[C@H](CO)[C@@H](O)[C@H](N)[C@H]3O)[C@H](N)C[C@@H]2N)[C@H](N)C[C@@H]1O` [tobramycin]: the MIC in the data set on MRSA (ATCC BAA-1556) (setting [15]) amounted to 0.5 µg/mL (≈ 1.07 µM); in data set [5], 16 µg/mL; in data set [6] (setting [16]), 0.5 µg/mL; in the data set with E. coli (ATCC 25922) [7] (setting [18]), 8 µg/mL; in data set [9] (setting [17]), 0.5 µg/mL; in data set [11] (setting [19]), 16 µg/mL (≈ 34.2 µM). The figures for the MIC (in the data set with E. coli (ATCC 25922) [12] (setting [20]); in [10]) were 8 µg/mL (≈ 17.1 µM) and 0.5 µg/mL (≈ 1.07 µM), respectively.

Regarding `CN[C@H](CC(C)C)C(=O)N[C@H]1C(=O)N[C@@H](CC(N)=O)C(=O)N[C@H]2C(=O)N[C@H]3C(=O)N[C@H](C(=O)N[C@H](C(=O)O)c4cc(O)cc(O)c4-c4cc3ccc4O)[C@H](O)c3ccc(c(Cl)c3)Oc3cc2cc(c3O[C@@H]2O[C@H](CO)[C@@H](O)[C@H](O)[C@H]2O[C@H]2C[C@](C)(N)[C@H](O)[C@H](C)O2)Oc2ccc(cc2Cl)[C@H]1O` [vancomycin], the MIC was found to be 1 µg/mL (≈ 0.69 µM) in the data set on MRSA (ATCC BAA-1556) (read-out: MIC MRSA (ATCC BAA-1556)); 1 µg/mL (≈ 0.69 µM) with MRSA (ATCC BAA-1556) (setting [15]); 512 µg/mL in [5]; 256 µg/mL in data set [6] (setting [13]); 256 µg/mL with E. coli (ATCC 25922) [7] (setting [14]); 1 µg/mL in data set [9] (ATCCBAA1556, read-out: MIC antibiotic alone). Further, the MIC in data set [11] (ATCCBAA1705, 24 h, read-out: MIC K. pneumoniae (ATCC BAA-1705)) was 512 µg/mL (≈ 353 µM); in data set [11] (setting [19]), 512 µg/mL (≈ 353 µM); in the data set with E. coli (ATCC 25922) [12] (ATCC25922, 24 h, read-out: MIC E. coli (ATCC 25922)), 256 µg/mL (≈ 177 µM); in the data set with E. coli (ATCC 25922) [12] (setting [20]), 256 µg/mL (≈ 177 µM); in data set [10], 256 µg/mL (≈ 177 µM).
